We go through 3 compounds from US20240417395A1, “DUAL ANTAGONIST AND USE THEREOF” (NICOYA THERAPEUTICS (SHANGHAI) CO., LTD, priority 2021, published 2024).

Each structure is given as a SMILES string. Where two headings read alike, the source gives them in different places. Bounds are passed on as bounds.

One data set has as its target AT1 (Homo sapiens (Human), UniProt P30556). The data set can be described thus: Calcium flux assay on AT1 cell line. The format is cell-based. The settings on record: AT1/HEK293, calcium flux, angiotensin II agonist. On the procedure:
Test materials: a) cell line: AT1/HEK293; b) vehicles: F12, Invitrogen (Cat #11765-047); FBS, Corning (Cat #35-076-CV); Geneticin, Invitrogen (Cat #10131); c) reagent: Fluo-4 Direct, (Invitrogen, Cat #F10471); d) instruments: 384 well Poly-D-Lysine protein coating plate, Greiner #781946; Vi-cell XR Cell Viability Analyzer, Beckman Coulter; Incubator, Thermo.
For the agonist (angiotensin II) master plate, the agonist solution was diluted from 1 mM to 200 μM with the test buffer solution. […] Afterwards, 900 nL of each compound solution was transferred to the master plate and 30 μL of the test buffer solution was added. • a) The cell plate was removed from the incubator, and 20 μL of 2X Fluo-4 Direct was added by a pipette to a 384-well cell plate. • b) The cell plate was incubated at 37° C. for 50 min in the environment of 5% CO2, and then incubated at room temperature for 10 min. • c) The cell plate was removed from the incubator and placed in FLIPR. The compound plates and the tip box were placed in FLIPR. • d) Regarding the EC80 plate: • 1) Operations were conducted on […]. • 2) 10 μL of compound solution was transferred from the EC80 master plate to the cell plate. • 3) Fluorescence signals were read. • 4) The read signals were counted, and the EC80 value of each cell line was calculated using FLIPR. • 5) For the concentration of the compound plate, a solution having a concentration 6 times that of the reference agonist EC80 was formulated. • e) Regarding the compound plate: • 1) Operations were conducted on […]. • 2) 10 μL of compound was transferred to the cell plate. • 3) Fluorescence signals were read. • 4) 10 μL of solution having a concentration 6 times that of the reference agonist EC80 was transferred. • 5) Fluorescence signals were read. • f) Data analysis by Prism

The target of a further data set is CYP2C8 (Homo sapiens (Human), UniProt P10632). The data set can be described thus: Inhibition of cytochrome P450 isozyme CYP2C8. The format is in vitro ADME. Conditions: for IC50: recombinant enzyme. The procedure:
A total of six specific probe substrates of six isozymes of CYPs, i.e., α-Naphthoflavone (CYP1A2), Sulphaphenazole (CYP2C9), Ticlopidine (CYP2C19), Quinidine (CYP2D6), Ketoconazole (CYP3A4), and Montelukast (CYP2C8) were co-incubated with recombinant hepatic drug enzymes CYP1A2, CYP2C9, CYP2C19, CYP2D6, CYP3A4, and CYP2C8 and test compounds, respectively. Nicotinamide adenine dinucleotide phosphate (NADP+), D-glucose-6-phosphate (G6P) and glucose-6-phosphate dehydrogenase (G6DHP) were added to start the reaction. At the end of the reaction, the corresponding half maximal inhibitory concentrations (IC50) were calculated by the fluorescence detection method (Ex490 nm/Em520 nm).

[1] abbreviates: read-out: IC50 activity against AT1 (class).
Where [2] appears, read: fluorescence detection, read-out: IC50 CYP2C8.

Chain of AT1 (P30556 whole entry): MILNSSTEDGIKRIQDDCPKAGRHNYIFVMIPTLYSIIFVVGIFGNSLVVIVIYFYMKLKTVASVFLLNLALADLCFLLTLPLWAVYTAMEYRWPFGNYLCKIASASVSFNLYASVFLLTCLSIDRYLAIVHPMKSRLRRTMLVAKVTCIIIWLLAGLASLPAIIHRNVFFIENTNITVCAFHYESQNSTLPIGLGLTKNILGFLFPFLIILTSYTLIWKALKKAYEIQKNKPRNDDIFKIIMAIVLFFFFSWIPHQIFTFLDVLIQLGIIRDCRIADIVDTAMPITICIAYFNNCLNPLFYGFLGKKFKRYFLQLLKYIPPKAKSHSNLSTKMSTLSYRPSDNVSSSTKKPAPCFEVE
Chain of CYP2C8 (P10632 whole entry): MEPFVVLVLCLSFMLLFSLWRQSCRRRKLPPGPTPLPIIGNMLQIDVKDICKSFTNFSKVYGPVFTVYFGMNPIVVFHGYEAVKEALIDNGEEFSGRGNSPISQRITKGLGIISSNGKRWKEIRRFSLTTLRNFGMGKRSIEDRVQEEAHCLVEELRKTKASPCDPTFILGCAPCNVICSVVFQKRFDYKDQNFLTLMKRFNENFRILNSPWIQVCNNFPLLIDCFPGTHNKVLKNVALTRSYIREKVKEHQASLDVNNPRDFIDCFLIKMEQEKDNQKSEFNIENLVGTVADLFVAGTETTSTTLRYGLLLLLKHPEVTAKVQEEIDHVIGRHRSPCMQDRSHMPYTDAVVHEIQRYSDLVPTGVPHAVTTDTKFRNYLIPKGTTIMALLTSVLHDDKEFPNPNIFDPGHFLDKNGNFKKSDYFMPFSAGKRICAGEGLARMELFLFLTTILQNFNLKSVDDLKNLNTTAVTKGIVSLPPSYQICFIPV

Consider `CCCCC1=N[C@@]2(CC3C[C@H]3C2)C(=O)N1Cc1ccc(-c2ccccc2S(=O)(=O)Nc2noc(C)c2Cl)c(COCC)c1` (some centres unmarked) [Example 7], for which the IC50 (as a rule, the midpoint of a concentration-inhibition curve) on AT1 (setting [1]) was 1 to 10 nM; at AT1 (read-out: IC50 against AT1), 3.55 nM; on CYP2C8 (setting [2]) it was more than 10000 nM. Moreover, the “risk of inhibiting CYP2C8 activity (conclusion in words)” value (from here on “risk of inhibiting CYP2C8 activity”) at CYP2C8 (conclusion to Table 4) is recorded as “no risk of inhibiting”.

For the compound `CCCCC1=N[C@@]2(CC3C[C@H]3C2)C(=O)N1Cc1ccc(-c2ccccc2S(=O)(=O)Nc2noc(C)c2C)c(COCC)c1` (some centres unmarked) [Example 3], the IC50 on AT1 (setting [1]) is 1 to 10 nM; at AT1 (read-out: IC50 against AT1) it was 1.97 nM; at CYP2C8, more than 10000 nM. Also, the “risk of inhibiting CYP2C8 activity” value at CYP2C8 is listed as “no risk of inhibiting”.

As to `CCCCC1=NC2(CCCC2)C(=O)N1Cc1ccc(-c2ccccc2S(=O)(=O)Nc2noc(C)c2C)c(COCC)c1` [Sparsentan, reference compound], the IC50 at AT1 (read-out: IC50 against AT1) was 9.79 nM; at CYP2C8 (setting [2]) it was 1000 to 10000 nM. For the same compound, the “risk of inhibiting CYP2C8 activity” value on CYP2C8 (conclusion to Table 4) is on record as “had an inhibitory effect”.
